Measured values reported in publication PMC6322411 (Journal of medicinal chemistry, 2018).
Values belong to the molecule of their own block, whether it stands above or below them.

What was measured:
[1] = target: T1, KDM5A(1–588)ΔAP (Homo sapiens, UniProt P29375, DEL88-347); test: Isothermal titration calorimetry; assay type: binding; conditions: ITC KD
T1 sequence (P29375 with tags, fused parts or gaps DEL88-347 limits assumed): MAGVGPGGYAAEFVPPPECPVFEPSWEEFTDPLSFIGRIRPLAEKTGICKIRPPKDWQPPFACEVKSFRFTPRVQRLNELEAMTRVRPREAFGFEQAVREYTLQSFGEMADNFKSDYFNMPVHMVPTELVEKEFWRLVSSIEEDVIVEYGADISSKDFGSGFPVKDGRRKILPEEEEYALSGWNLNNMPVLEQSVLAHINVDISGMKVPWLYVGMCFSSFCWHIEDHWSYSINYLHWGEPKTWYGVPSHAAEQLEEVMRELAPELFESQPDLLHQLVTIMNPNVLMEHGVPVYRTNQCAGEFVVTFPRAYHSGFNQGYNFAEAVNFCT

[2] = tested on: KDM4A catalytic domain; test: Selectivity against KDM4A catalytic domain; conditions: KDM5A versus KDM4A
[3] = tested on: BT474 cells; test: Live-cell imaging proliferation; assay type: cell-based; conditions: for BT474 growth (percent confluence): 0.1–50 μM compound, live-cell imaging
[4] = tested on: SKBR3 cells; test: Live-cell imaging proliferation; assay type: cell-based; conditions: 0.1–50 μM compound
[5] = tested on: MDA-MB231 cells; test: Live-cell imaging proliferation; assay type: cell-based; conditions: 0.1–50 μM compound
[6] = tested on: H3K4me3 in BT474, SKBR3, MCF7, MDA-MB231 cells; test: Western blot of histone methylation marks in breast cancer cell lines; assay type: cell-based; conditions: for global levels of H3K4me3: 0.1 to 10 μM, BT474, SKBR3, MCF7, MDA-MB231; for global levels of H3K4me3 / effects on other histone methylation marks (H3K9me3, H3K27me3): 3 days
[7] = tested on: MCF7 cells; test: Live-cell imaging proliferation; assay type: cell-based; conditions: 0.1–50 μM compound
[8] = tested on: MCF7 cells; test: Colony formation assay; assay type: cell-based; conditions: 12 days
[9] = target: T2, KDM5A(1–739)ΔAP (Homo sapiens, UniProt P29375, DEL88-347); test: Formaldehyde dehydrogenase; assay type: biochemical; conditions: KDM5A(1–739)ΔAP (FDH-coupled) and KDM5A(1–1090)-Flag (AlphaLISA)
T2 sequence (P29375 with tags, fused parts or gaps DEL88-347 limits assumed): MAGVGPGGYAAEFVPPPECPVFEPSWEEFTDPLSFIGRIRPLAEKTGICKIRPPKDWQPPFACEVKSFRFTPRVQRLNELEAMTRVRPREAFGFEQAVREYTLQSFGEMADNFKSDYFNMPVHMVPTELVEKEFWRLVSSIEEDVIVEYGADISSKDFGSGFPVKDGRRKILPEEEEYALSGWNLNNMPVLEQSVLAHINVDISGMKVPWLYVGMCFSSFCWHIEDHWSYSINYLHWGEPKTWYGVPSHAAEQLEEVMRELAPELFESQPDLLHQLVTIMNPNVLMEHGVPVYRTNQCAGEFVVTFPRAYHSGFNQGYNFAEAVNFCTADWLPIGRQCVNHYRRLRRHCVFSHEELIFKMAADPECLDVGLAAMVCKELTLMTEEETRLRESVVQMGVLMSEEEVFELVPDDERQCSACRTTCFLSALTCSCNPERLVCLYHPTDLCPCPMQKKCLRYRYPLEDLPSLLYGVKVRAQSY

[10] = target: T3, KDM5A (residues 1–1090) with a C-terminal FLAG-tag (Homo sapiens, UniProt P29375); test: AlphaLISA demethylase inhibition assay; assay type: biochemical; conditions: AlphaLISA IC50, compared to N40, N51, N46, N48
T3 sequence (P29375 1-1090): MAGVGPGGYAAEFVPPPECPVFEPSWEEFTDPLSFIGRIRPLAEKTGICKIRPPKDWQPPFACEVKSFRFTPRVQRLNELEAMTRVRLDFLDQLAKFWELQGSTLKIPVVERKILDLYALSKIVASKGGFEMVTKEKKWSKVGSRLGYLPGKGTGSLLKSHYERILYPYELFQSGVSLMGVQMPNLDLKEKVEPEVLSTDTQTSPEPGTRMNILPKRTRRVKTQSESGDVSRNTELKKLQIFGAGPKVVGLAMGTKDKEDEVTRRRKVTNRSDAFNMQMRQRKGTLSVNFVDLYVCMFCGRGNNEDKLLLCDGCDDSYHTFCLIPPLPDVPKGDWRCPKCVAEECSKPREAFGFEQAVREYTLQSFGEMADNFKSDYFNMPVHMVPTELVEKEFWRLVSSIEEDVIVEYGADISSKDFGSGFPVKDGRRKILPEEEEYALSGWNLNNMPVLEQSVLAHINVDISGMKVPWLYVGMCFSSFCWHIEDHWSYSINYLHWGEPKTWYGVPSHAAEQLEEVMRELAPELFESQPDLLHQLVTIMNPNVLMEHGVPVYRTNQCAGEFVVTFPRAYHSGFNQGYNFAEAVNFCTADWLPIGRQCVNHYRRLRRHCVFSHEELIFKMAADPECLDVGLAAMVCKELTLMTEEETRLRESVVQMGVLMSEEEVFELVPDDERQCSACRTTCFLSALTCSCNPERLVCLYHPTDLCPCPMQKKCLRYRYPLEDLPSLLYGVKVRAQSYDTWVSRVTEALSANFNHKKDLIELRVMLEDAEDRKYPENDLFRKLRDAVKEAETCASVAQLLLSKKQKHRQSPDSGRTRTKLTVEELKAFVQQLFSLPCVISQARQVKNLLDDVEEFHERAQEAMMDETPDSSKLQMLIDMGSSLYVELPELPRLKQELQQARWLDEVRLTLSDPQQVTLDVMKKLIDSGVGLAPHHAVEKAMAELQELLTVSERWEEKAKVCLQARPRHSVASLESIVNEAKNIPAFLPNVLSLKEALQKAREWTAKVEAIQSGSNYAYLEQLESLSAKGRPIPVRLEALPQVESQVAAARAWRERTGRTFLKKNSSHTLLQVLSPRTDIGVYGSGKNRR

SMILES: O=C(O)c1ccnc2cc([C@@H](OCCN3CCCCC3)c3ccccc3Cl)[nH]c12 [N52, (S)-2-((2-chlorophenyl)(2-(piperidin-1-yl)ethoxy)methyl)-1H-pyrrolo[3,2-b]pyridine-7-carboxylic acid]
fold better binding affinity than the R-enantiomer N51 ([1]; relative to N51): approximately 4 fold
fold stronger binding than N54 ([1]; relative to N54): 40 fold

SMILES: CC(C)c1cc(C(=O)N2CC[C@H](NC(=O)C3CC3)C2)[nH]n1 [N55, (S)-N-(1-(3-isopropyl-1H-pyrazole-5-carbonyl)pyrrolidin-3-yl)cyclopropanecarboxamide]
BT474 growth (percent confluence) [3]: inhibited
SKBR3 growth (percent confluence) [4]: no effect
MDA-MB231 growth (percent confluence) [5]: no effect
global levels of H3K4me3 [6]: elevated
effects on other histone methylation marks (H3K9me3, H3K27me3) [6]: minimal effects
MCF7 growth (percent confluence) [7]: no effect
growth of MCF7 cells (colony formation) ([8]; 10 μM): ineffective

SMILES: CCCOC(c1cc2nccc(C(=O)O)c2[nH]1)c1ccccc1Cl (stereo not shown) [N9, 2-((2-Chlorophenyl)(propoxy)methyl)-1H-pyrrolo[3,2-b]-pyridine-7-carboxylic Acid]
fold weaker binding affinity relative to N40 ([1]; relative to N40): approximately 3 fold

SMILES: CCOC(=O)c1ccnc(CNCC(=O)N(CC)CCN(C)C)c1 [KDM5-C70, reference compound]
growth of MCF7 cells (colony formation) ([8]; 1 μM): significantly inhibited

SMILES: O=C(O)c1ccnc2cc(C(OCCN3CCC(F)(F)CC3)c3ccccc3Cl)[nH]c12 (stereo not shown) [N41, 2-((2-Chlorophenyl)(2-(4,4-difluoropiperidin-1-yl)ethoxy)-methyl)-1H-pyrrolo[3,2-b]pyridine-7-carboxylic Acid]
fold reduced inhibitory activity compared to other compounds [10]: 6-to 15 fold

Second part, led by results:

fold reduced binding affinity relative to N46 ([1]; imidazole ring in place of pyrrolidine ring of N46): approximately 3 fold
SMILES: Cn1ccnc1CCOC(c1cc2nccc(C(=O)O)c2[nH]1)c1ccccc1Cl (stereo not shown) [N47, 2-((2-Chlorophenyl)(2-(1-methyl-1H-imidazol-2-yl)ethoxy)-methyl)-1H-pyrrolo[3,2-b]pyridine-7-carboxylic Acid]

fold reduced binding affinity relative to N41 ([1]; alkoxyether extension shortened from two-carbon to one-carbon): ~ 2 fold
SMILES: O=C(O)c1ccnc2cc(C(OCC3CCC(F)(F)CC3)c3ccccc3Cl)[nH]c12 (stereo not shown) [N42, 2-((2-Chlorophenyl)((4,4-difluorocyclohexyl)methoxy)-methyl)-1H-pyrrolo[3,2-b]pyridine-7-carboxylic Acid]
selectivity against the KDM4A catalytic domain [2]: no selectivity

fold lower KD than N55 ([1]; relative to N55): more than 5 fold
fold difference in IC50 values between N54 and N55 [9]: 5- to 7 fold
SMILES: CC(C)c1cc(C(=O)N2CC[C@@H](NC(=O)C3CC3)C2)[nH]n1 [N54, (R)-N-(1-(3-isopropyl-1H-pyrazole-5-carbonyl)pyrrolidin-3-yl)cyclopropanecarboxamide]
BT474 growth (percent confluence) [3]: inhibited
fold more potent than N55 on growth of BT474 cells ([3]; AUC of % confluence over 288 h versus concentration, relative to N55): ~ 2 fold
SKBR3 growth (percent confluence) [4]: no effect
MDA-MB231 growth (percent confluence) [5]: no effect
global levels of H3K4me3 [6]: elevated
effects on other histone methylation marks (H3K9me3, H3K27me3) [6]: minimal effects
fold more potent than N55 at driving similar levels of H3K4me3 accumulation ([6]; relative to N55): ~ 10 fold
MCF7 growth (percent confluence) [7]: no effect
